# Patent publication US8916711B2, “Imidazothiazole-chalcone derivatives as potential anticancer agents and process for the preparation thereof” (Council of Scientific and Industrial Research, priority 2009, dated 2014)
# Read-outs that look alike come from different tables or passages of the source.
# Assays:
# Format in all cases: cell-based
# SK-MEL-28 = assay: NCI in vitro cytotoxicity (SRB, 48 h), Melanoma panel; conditions: Homo sapiens; SK-MEL-28, Melanoma; 48 h exposure
# HOP-92 = assay: NCI in vitro cytotoxicity (SRB, 48 h), Non-small cell lung panel; conditions: Homo sapiens
# PC-3 = assay: NCI in vitro cytotoxicity (SRB, 48 h), Prostate panel; conditions: Homo sapiens; PC-3, Prostate; 48 h exposure
# EKVX = assay: NCI in vitro cytotoxicity (SRB, 48 h), Non-small cell lung panel; conditions: Homo sapiens, 48 h exposure
# UACC-62 = assay: NCI in vitro cytotoxicity (SRB, 48 h), Melanoma panel; conditions: Homo sapiens; UACC-62, Melanoma; 48 h exposure
# CAKI-1 = assay: NCI in vitro cytotoxicity (SRB, 48 h), Renal panel; conditions: Homo sapiens
# SF-539 = assay: NCI in vitro cytotoxicity (SRB, 48 h), CNS panel; conditions: Homo sapiens; SF-539, CNS; 48 h exposure
# NCI-H226 = assay: NCI in vitro cytotoxicity (SRB, 48 h), Non-small cell lung panel; conditions: Homo sapiens, 48 h exposure
# DU-145 = assay: NCI in vitro cytotoxicity (SRB, 48 h), Prostate panel; conditions: Homo sapiens; DU-145, Prostate; 48 h exposure
# OVCAR-5 = assay: NCI in vitro cytotoxicity (SRB, 48 h), Ovarian panel; conditions: Homo sapiens
# [1] = test system: Non-small-cell lung cancer cell lines; assay: NCI in vitro cytotoxicity, whole panel; conditions: Homo sapiens
# IGROV1 = assay: NCI in vitro cytotoxicity (SRB, 48 h), Ovarian panel; conditions: Homo sapiens, IGROV-1
# CNS cancer cell lines = assay: NCI in vitro cytotoxicity, whole panel; conditions: Homo sapiens
# NCI-H460 = assay: NCI in vitro cytotoxicity (SRB, 48 h), Non-small cell lung panel; conditions: Homo sapiens, 48 h exposure
# K-562 = assay: NCI in vitro cytotoxicity (SRB, 48 h), Leukemia panel; conditions: Homo sapiens, K562; K-562, Leukemia; 48 h exposure
# A498 = assay: NCI in vitro cytotoxicity (SRB, 48 h), Renal panel; conditions: Homo sapiens, 48 h exposure
# [2] = test system: Ovarian cancer cell lines; assay: NCI in vitro cytotoxicity, whole panel; conditions: Homo sapiens
# HOP-62 = assay: NCI in vitro cytotoxicity (SRB, 48 h), Non-small cell lung panel; conditions: Homo sapiens; HOP-62, Non-small cell lung; 48 h exposure
# HCT-15 = assay: NCI in vitro cytotoxicity (SRB, 48 h), Colon panel; conditions: Homo sapiens; HCT-15, Colon; 48 h exposure
# BT-549 = assay: NCI in vitro cytotoxicity (SRB, 48 h), Breast panel; conditions: Homo sapiens; BT-549, Breast; 48 h exposure
# SK-OV-3 = assay: NCI in vitro cytotoxicity (SRB, 48 h), Ovarian panel; conditions: Homo sapiens; SK-OV-3, Ovarian; 48 h exposure
# 786-0 = assay: NCI in vitro cytotoxicity (SRB, 48 h), Renal panel; conditions: Homo sapiens; 786-0, Renal; 48 h exposure
# COLO 205 = assay: NCI in vitro cytotoxicity (SRB, 48 h), Colon panel; conditions: Homo sapiens; COLO 205, Colon; 48 h exposure
# [3] = test system: sixty human tumour cell lines; assay: NCI in vitro cytotoxicity, all panels
# SK-MEL-2 = assay: NCI in vitro cytotoxicity (SRB, 48 h), Melanoma panel; conditions: Homo sapiens; SK-MEL-2, Melanoma; 48 h exposure
# SW-620 = assay: NCI in vitro cytotoxicity (SRB, 48 h), Colon panel; conditions: Homo sapiens; SW-620, Colon; 48 h exposure
# MDA-MB-231/ATCC = assay: NCI in vitro cytotoxicity (SRB, 48 h), Breast panel; conditions: Homo sapiens
# Method: (§1) The imidazothiazole-chalcone hybrids 7a, 7e, 7f, 8f and 19e have been tested against sixty human tumour cell lines derived from nine cancer types (leukemia, non-small cell lung cancer, colon cancer, CNS cancer, melanoma, ovarian cancer, renal cancer, prostate cancer and breast cancer) as per NCI protocol. For each compound, dose response curves for individual cell lines have been measured at a minimum of five concentrations at 10 fold dilutions. A protocol of 48 h continuous drug exposure has been used, and a sulforhodamine B (SRB) protein assay was used to estimate cell viability or growth. The concentration for 50% cell growth inhibition (GI50), total cell growth inhibition (TGI, 0% growth) and 50% cell death (LC50, […]) compared with the control has been calculated (Table-1).
# MCF7 = assay: as above; conditions: Homo sapiens
# Method: as §1
# NCI-H23 = assay: NCI in vitro cytotoxicity (SRB, 48 h), Non-small cell lung panel; conditions: Homo sapiens, 48 h exposure
# MALME-3M = assay: NCI in vitro cytotoxicity (SRB, 48 h), Melanoma panel; conditions: Homo sapiens, 48 h exposure
# ACHN = assay: NCI in vitro cytotoxicity (SRB, 48 h), Renal panel; conditions: Homo sapiens, 48 h exposure
compound,measurement,setting,value
"COc1ccc(-c2nc3sccn3c2/C=C/C(=O)c2cc(OC)c(OC)c(OC)c2)cc1 [Compound 7a, (E)-3-(6-(4-methoxyphenyl)imidazo[2,1-b]thiazol-5-yl)-1-(3,4,5-trimethoxyphenyl) prop-2-en-1-one]",GI50,SK-MEL-28,4110 nM
same,GI50,"HOP-92; HOP-92, Non-small cell lung, 48 h exposure",240 nM
same,GI50,"HOP-92; HOP-92, non-small cell lung",240 nM
same,IC50,"HOP-92; HOP-92, Table 4, read-out: Comparative efficacy",240 nM
same,GI50,PC-3,3100 nM
same,GI50,EKVX,3120 nM
same,GI50,UACC-62,2080 nM
same,GI50,"CAKI-1; CAKI-1, Renal, 48 h exposure",1200 nM
same,IC50,"CAKI-1; CAKI-1, Table 4, read-out: Comparative efficacy",1200 nM
same,GI50,SF-539,1660 nM
same,GI50,NCI-H226,2580 nM
same,GI50,DU-145,2620 nM
same,GI50,"OVCAR-5; OVCAR-5, Ovarian, 48 h exposure",1990 nM
same,GI50,"OVCAR-5; OVCAR-5, ovarian",1990 nM
same,GI50,"[1]; Non-small-cell lung, average of six to eight cell lines, read-out: Log10 GI50 (converted)",1950 nM
same,CC50,"[1]; Non-small-cell lung, average of six to eight cell lines, read-out: Log10 LC50 (converted)",95500 nM
same,GI50,"[1]; exposure period of at least 48 hrs, read-out: GI50, range over lung cell lines",240 to 3700 nM
same,GI50,"IGROV1; IGROV1, Ovarian, 48 h exposure",210 nM
same,GI50,"IGROV1; IGROV1, ovarian",210 nM
same,IC50,"IGROV1; IGROV1, Table 4, read-out: Comparative efficacy",210 nM
same,GI50,"CNS cancer cell lines; CNS cell, exposure period of at least 48 hrs, read-out: GI50, range over CNS cell lines",1660 to 3540 nM
same,GI50,"CNS cancer cell lines; CNS, average of six to eight cell lines, read-out: Log10 GI50 (converted)",2630 nM
same,CC50,"CNS cancer cell lines; CNS, average of six to eight cell lines, read-out: Log10 LC50 (converted)",≥ 100000 nM
same,GI50,NCI-H460,2700 nM
same,GI50,K-562,1720 nM
same,GI50,A498,2990 nM
same,GI50,"[2]; Ovarian, average of six to eight cell lines, read-out: Log10 GI50 (converted)",1860 nM
same,CC50,"[2]; Ovarian, average of six to eight cell lines, read-out: Log10 LC50 (converted)",70800 nM
same,GI50,"[2]; exposure period of at least 48 hrs, read-out: GI50, range over ovarian cell lines",210 to 4050 nM
same,GI50,HOP-62,2210 nM
same,GI50,HCT-15,3450 nM
same,GI50,BT-549,3460 nM
same,GI50,SK-OV-3,3280 nM
same,GI50,786-0,2580 nM
same,GI50,COLO 205,2520 nM
same,GI50,"[3]; Homo sapiens, sixty cell lines, nine panels, read-out: GI50 against sixty cell lines in nine cell panels",< 9000 nM
same,Log10 TGI mean graph midpoint (MG_MID),[3]; human tumour cell lines,−4.76
same,"in vitro cytotoxicity, in words",[3]; human tumour cell lines,significant cytotoxicity
same,GI50,"[3]; human tumour cell lines, read-out: Log10 GI50 mean graph midpoint (MG_MID) (converted)",2340 nM
same,CC50,"[3]; human tumour cell lines, read-out: Log10 LC50 mean graph midpoint (MG_MID) (converted)",87100 nM
same,GI50,SK-MEL-2,2420 nM
same,GI50,SW-620,3160 nM
same,GI50,"MDA-MB-231/ATCC; Breast, 48 h exposure",2550 nM
same,IC50,"MDA-MB-231/ATCC; Table 4, read-out: Comparative efficacy",2550 nM
same,IC50,"MCF7; MCF7, MCF-7, Table 4, read-out: Comparative efficacy",2020 nM
same,GI50,"MCF7; MCF7, Breast, 48 h exposure",2020 nM
same,GI50,NCI-H23,2180 nM
same,GI50,MALME-3M,5420 nM
same,GI50,ACHN,4080 nM
